# pEC50, pIC50: −log10 of the molar value. Where a name gives a salt, the structure may show the parent alone.
# Experiments:
# [1] = molecular target: T1, S1P1 (Homo sapiens (Human), UniProt P21453); experiment: Receptor [35S] GTPγS Binding Assay, S1P1; type: biochemical; details: for pEC50: membranes from S1P1/CHO cells, [35S]GTP; for GTPγS S1P3/S1P1: ratio of GTPγS S1P3 EC50 to GTPγS S1P1 EC50, * and ** S1P3 value at detection limit
# Procedure: (§1) Receptor [35S] GTPγS Binding Assays
# (§2) Membranes prepared from S1P1/CHO cells or EDG3-Ga15-bla HEK293T cells were added to the compound plate (40 μl/well, final protein 3 μg/well) with MULTIDROP®. [^35S]GTP (1250 Ci/mmol, Perkin Elmer) was diluted in assay buffer: 20 mM HEPES, pH7.5, 10 mM MgCl2, 150 mM NaCl, 1 mM EGTA, 1 mM DTT, 10 μM GDP, 0.1% fatty acid free BSA, and 10 μg/ml Saponin to 0.4 nM. 40 μl of the [^35S] GTP solution was added to the compound plate with a final concentration of 0.2 nM. The reaction was kept at room temperature for 45 min. At the end of incubation, all the mixtures in the compound plate were transferred to a 384 well FB filter plates via GPCR robot system. The filter plate was washed with water 4 times by using the modified manifold Embla plate washer and dried at 60° C. for 45 min. 30 μl of MicroScint 20 scintillation fluid was added to each well for counting at Packard TOPCOUNT®.
# A larger value for the GTPγS S1P3 EC50 value indicated less activity in the GTPγS S1P3 binding assay.
# [2] = molecular target: T1, S1P1; experiment: S1P1 Binding Assay; details: membranes from CHO cells expressing human S1P1; 33P-S1P ligand; rounded to two digits
# Procedure: Membranes were prepared from CHO cells expressing human S1P1. Cells were dissociated in buffer containing 20 mM HEPES, pH 7.5, 50 mM NaCl, 2 mM EDTA and Protease Inhibitor cocktail (Roche), and disrupted on ice using the Polytron homogenizer. The homogenate was centrifuged at 20,000 rpm (48,000 G) and the supernatant was discarded. The membrane pellets were resuspended in buffer containing 50 mM HEPES, pH 7.5, 100 mM NaCl, 1 mM MgCl2, 2 mM EDTA and stored in aliquots at −80° C. after protein concentration determination. Membranes (2 μg/well) and 0.03 nM final concentration of ^33P-S1P ligand (1 mCi/ml, American Radiolabeled Chemicals) were added to the compound plates. Binding was performed for 45 minutes at room temperature, terminated by collecting the membranes onto GF/B filter plates, and radioactivity was measured by TOPCOUNT®. The competition data of the test compounds over a range of concentrations was plotted as percentage inhibition of radioligand specific binding. The IC50 is defined as the concentration of competing ligand needed to reduce specific binding by 50%.
# The results in Table A were rounded to two digits.
# [3] = molecular target: S1P3 (Homo sapiens (Human), UniProt Q99500); experiment: Receptor [35S] GTPγS Binding Assay, S1P3; type: biochemical; details: membranes from EDG3-Ga15-bla HEK293T cells; * detection limit 62,500 nM, ** detection limit 32,500 nM
# S1P3, sequence (Q99500 whole entry): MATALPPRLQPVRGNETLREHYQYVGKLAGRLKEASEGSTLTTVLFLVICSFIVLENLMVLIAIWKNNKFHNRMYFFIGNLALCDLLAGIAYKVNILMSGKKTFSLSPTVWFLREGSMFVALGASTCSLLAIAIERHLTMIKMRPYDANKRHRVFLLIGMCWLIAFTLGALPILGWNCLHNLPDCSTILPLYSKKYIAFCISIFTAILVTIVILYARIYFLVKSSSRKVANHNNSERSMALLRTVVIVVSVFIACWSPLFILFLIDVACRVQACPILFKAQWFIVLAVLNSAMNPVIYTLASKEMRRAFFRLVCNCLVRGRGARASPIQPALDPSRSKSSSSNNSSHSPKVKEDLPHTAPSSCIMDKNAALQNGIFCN
# Procedure: as §1
# as §2, with “Compounds were loaded in a 384 FALCON® v-bottom plate (0.5 μl/well in a 3-fold dilution). Membranes” for “Membranes”, “TOPCOUNT®. EC50 is defined as the agonist concentration that corresponds to 50% of the Ymax (maximal response) obtained for each individual compound tested.” for “TOPCOUNT®.”
# A smaller value for GTPγS S1P1 EC50 value indicated greater activity for the compound in the GTPγS S1P1 binding assay. A larger value for the GTPγS S1P3 EC50 value indicated less activity in the GTPγS S1P3 binding assay.
# T1 sequence (P21453 whole entry): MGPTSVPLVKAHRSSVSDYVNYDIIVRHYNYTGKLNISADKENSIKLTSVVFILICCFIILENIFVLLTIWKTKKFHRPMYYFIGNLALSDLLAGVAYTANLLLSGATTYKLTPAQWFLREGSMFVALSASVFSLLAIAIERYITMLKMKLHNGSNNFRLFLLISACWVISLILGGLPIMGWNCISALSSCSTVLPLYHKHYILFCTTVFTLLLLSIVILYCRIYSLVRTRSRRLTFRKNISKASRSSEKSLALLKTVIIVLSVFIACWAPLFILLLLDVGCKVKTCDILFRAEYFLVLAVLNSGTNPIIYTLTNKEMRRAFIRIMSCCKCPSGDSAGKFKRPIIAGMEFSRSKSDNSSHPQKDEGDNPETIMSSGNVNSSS
Compound,pEC50 [1],GTPγS S1P3/S1P1 [1],pIC50 [2],pEC50 [3]
"Cn1cccc1CNC(=O)C(O)c1ccc(-c2noc(-c3onc(-c4ccccc4)c3C(F)(F)F)n2)cc1 (racemic) [Example 132, (R/S)-2-hydroxy-N-((1-methyl-1H-pyrrol-2-yl)methyl)-2-(4-(5-(3-phenyl-4-(trifluoromethyl)isoxazol-5-yl)-1,2,4-oxadiazol-3-yl)phenyl)acetamide]",6.20,27,7.38,4.77
"CCNC(=O)C(O)c1ccc(-c2noc(-c3noc(-c4ccccc4)c3C(F)(F)F)n2)cc1 (racemic) [Example 67, (R/S)-N-Ethyl-2-hydroxy-2-(4-(5-(5-phenyl-4-(trifluoromethyl)isoxazol-3-yl)-1,2,4-oxadiazol-3-yl)phenyl)acetamide]",7.76,1006,7.77,4.76
"O=C(NC1CNC1)C(O)c1ccc(-c2noc(-c3onc(-c4ccccc4)c3C(F)(F)F)n2)cc1 (single isomer, unassigned) [Example 30, N-(Azetidin-3-yl)-2-hydroxy-2-(4-(5-(3-phenyl-4-(trifluoromethyl)isoxazol-5-yl)-1,2,4-oxadiazol-3-yl)phenyl)acetamide-TFA]",7.29,> 614**,8.35,< 4.51
"O=C(NCc1cnco1)C(O)c1ccc(-c2noc(-c3onc(-c4ccccc4)c3C(F)(F)F)n2)cc1 (racemic) [Example 126, (R/S)-2-hydroxy-N-(oxazol-5-ylmethyl)-2-(4-(5-(3-phenyl-4-(trifluoromethyl)isoxazol-5-yl)-1,2,4-oxadiazol-3-yl)phenyl)acetamide]",7.87,1484,8.68,4.70
"CCNC(=O)C(O)c1ccc(-c2noc(-c3cnn(-c4ccccc4)c3C(F)(F)F)n2)cc1 (racemic) [Example 61, (R/S)-N-Ethyl-2-hydroxy-2-(4-(5-(1-phenyl-5-(trifluoromethyl)-1H-pyrazol-4-yl)-1,2,4-oxadiazol-3-yl)phenyl)acetamide]",7.47,> 1827*,8.07,< 4.20
"O=C(NCc1cc2ccccc2[nH]1)C(O)c1ccc(-c2noc(-c3onc(-c4ccccc4)c3C(F)(F)F)n2)cc1 (racemic) [Example 86, (R/S)-N-((1H-Indol-2-yl)methyl)-2-hydroxy-2-(4-(5-(3-phenyl-4-(trifluoromethyl)isoxazol-5-yl)-1,2,4-oxadiazol-3-yl)phenyl)acetamide]",5.81,> 20**,6.74,< 4.51
"O=C(O)CCNC(=O)C(O)c1ccc(-c2noc(-c3onc(-c4ccccc4)c3C(F)(F)F)n2)cc1 (racemic) [Example 22, (R/S)-3-(2-Hydroxy-2-(4-(5-(3-phenyl-4-(trifluoromethyl)isoxazol-5-yl)-1,2,4-oxadiazol-3-yl)phenyl)acetamido)propanoic acid]",6.99,> 604*,7.54,< 4.20
"CCN(C)C(=O)C(O)c1ccc(-c2noc(-c3onc(-c4ccccc4)c3C(F)(F)F)n2)cc1 (racemic) [Example 24, (R/S)-N-Ethyl-2-hydroxy-N-methyl-2-(4-(5-(3-phenyl-4-(trifluoromethyl)isoxazol-5-yl)-1,2,4-oxadiazol-3-yl)phenyl)acetamide]",5.98,> 60*,6.46,< 4.20
"O=C(NC1CCC1)C(O)c1ccc(-c2noc(-c3onc(-c4ccccc4)c3C(F)(F)F)n2)cc1 (racemic) [Example 116, (R/S)-N-Cyclobutyl-2-hydroxy-2-(4-(5-(3-phenyl-4-(trifluoromethyl)isoxazol-5-yl)-1,2,4-oxadiazol-3-yl)phenyl)acetamide]",,> 387*,,< 4.20

# Compounds with a higher pEC50 [3], results first:
pEC50 [1],GTPγS S1P3/S1P1 [1],pIC50 [2],pEC50 [3],Compound
7.05,,7.51,4.87,"CC(C)(C)OC(=O)NCCNC(=O)C(O)c1ccc(-c2noc(-c3onc(-c4ccccc4)c3C(F)(F)F)n2)cc1 (racemic) [Example 51, (R/S)-tert-Butyl 2-(2-hydroxy-2-(4-(5-(3-phenyl-4-(trifluoromethyl)isoxazol-5-yl)-1,2,4-oxadiazol-3-yl)phenyl)acetamido)ethylcarbamate]"
6.29,22,6.59,4.95,"O=C(NC[C@@H]1CCCC[C@H]1O)C(O)c1ccc(-c2noc(-c3cnn(-c4ccccc4)c3C(F)(F)F)n2)cc1 (mixture of isomers) [Example 152, (R/S)-2-hydroxy-N-(((1S,2R)-2-hydroxycyclohexyl)methyl)-2-(4-(5-(1-phenyl-5-(trifluoromethyl)-1H-pyrazol-4-yl)-1,2,4-oxadiazol-3-yl)phenyl)acetamide]"
7.38,267,8.31,4.96,"O=C(NCc1ccccn1)C(O)c1ccc(-c2noc(-c3cnn(-c4ccccc4)c3C(F)(F)F)n2)cc1 (racemic) [Example 137, (R/S)-2-hydroxy-2-(4-(5-(1-phenyl-5-(trifluoromethyl)-1H-pyrazol-4-yl)-1,2,4-oxadiazol-3-yl)phenyl)-N-(pyridin-2-ylmethyl)acetamide]"
7.90,731,8.49,5.04,"O=C(NCCO)C(O)c1ccc(-c2noc(-c3noc(-c4ccccc4)c3C(F)(F)F)n2)cc1 (racemic) [Example 62, (R/S)-2-Hydroxy-N-(2-hydroxyethyl)-2-(4-(5-(5-phenyl-4-(trifluoromethyl)isoxazol-3-yl)-1,2,4-oxadiazol-3-yl)phenyl)acetamide]"
5.37,1.4,6.04,5.21,"CNC(=O)[C@H](CCc1ccccc1)NC(=O)C(O)c1ccc(-c2noc(-c3onc(-c4ccccc4)c3C(F)(F)F)n2)cc1 (mixture of isomers) [Example 26, (R/S)-(2S)-2-(2-Hydroxy-2-(4-(5-(3-phenyl-4-(trifluoromethyl)isoxazol-5-yl)-1,2,4-oxadiazol-3-yl)phenyl)acetamido)-N-methyl-4-phenylbutanamide]"
6.99,58,7.54,5.23,"O=C(NCC1CCCN1)C(O)c1ccc(-c2noc(-c3onc(-c4ccccc4)c3C(F)(F)F)n2)cc1 (racemic) [Example 88, (R/S)-2-Hydroxy-2-(4-(5-(3-phenyl-4-(trifluoromethyl)isoxazol-5-yl)-1,2,4-oxadiazol-3-yl)phenyl)-N-(pyrrolidin-2-ylmethyl)acetamide, TFA]"
7.50,171,7.89,5.27,"O=C(NCc1nc2ccccc2[nH]1)C(O)c1ccc(-c2noc(-c3onc(-c4ccccc4)c3C(F)(F)F)n2)cc1 (racemic) [Example 90, (R/S)-N-((1H-Benzo[d]imidazol-2-yl)methyl)-2-hydroxy-2-(4-(5-(3-phenyl-4-(trifluoromethyl)isoxazol-5-yl)-1,2,4-oxadiazol-3-yl)phenyl)acetamide]"
